Source: US20250263437A1, “POLYPEPTIDE FOR REPAIRING SKIN WOUND OR MUCOSAL INJURY, AND APPLICATION THEREOF” (Sichuan Gooddoctor Panxi Pharmaceutical Co., Ltd., priority 2021, published 2025)
“Also recorded” adds a separate entry of the source. Where no end group is shown, it is not given here.

What was measured:
[1] = test system: ethanol-induced gastric ulcer model in mice; assay: Anti-ulcer effect on ethanol-induced gastric ulcer model in mice; format: in vivo; settings: single administration; ulcer inhibition rate of test compound / ulcer inhibition rate of Compound 1
Procedure: Experimental animals: Six-week old C57BL/6JGPt male mice, weighing about 20 g/mouse, were selected, with 10 mice in each group, from GemPharmatech (Chengdu) Co., Ltd., animal license number: SCXK (Chuan) 2020-034. After the experimental animals were divided into groups, they were dosed according to Table 5 one day before the experiment. Among the groups, the model group was given 200 μl of pure water, and the other dose groups were given 200 μl of drug solution. After that, all the animals were fasted for 24 h with free access to water. The next day, 1 h after administration, the mice in each group were given 9 μl/g of absolute ethanol by oral gavage for modeling. After 1 h, the animals were sacrificed by cervical dislocation, the gastric cardia was ligated, the pylorus was occluded, and the whole stomach was removed. 1 mL of 1% formaldehyde solution was injected into the gastric lumen via the glandular stomach, the cardia was ligated, and the stomach was taken out and immediately immersed in 1% formaldehyde solution. After soaking for 30 min, the stomach tissue was taken out and cut open along the greater curvature. The content of the stomach was rinsed off with normal saline, the injury of the gastric mucosa in the mice were observed and measured after being laid flat, and the ulcer index and ulcer inhibition rate were calculated; panoramic photos of the stomach were taken; and finally, the gastric tissue sample was immersed in formalin and fixed. Calculation method for ulcer index: If the length of cord-like injury was greater than 1 mm, the length thereof was measured, with 1 point per millimeter; if the width thereof was greater than 1 mm, the score thereof was doubled according to the number of millimeters of the width; and if the length was less than 1 mm, a score of 0.5 was given, and the scores were added up to obtain the ulcer index of the animal. Method of data statistics: the ulcer index was expressed as mean±standard deviation; the ulcer inhibition rate was calculated by using the median value and mean value of the ulcer index in each dosage group and simulation group; and the data were statistically analyzed by means of Excel, and the difference data of the gastric ulcer index were statistically analyzed by means of independent sample T test.

[2] = test system: chronic atrophic gastritis model in mice; assay: Therapeutic effect on chronic atrophic gastritis model in mice (MNNG combined with ranitidine); format: in vivo; settings: 5 mg/kg daily by gavage, 2 weeks
Procedure: Method: Chronic atrophic gastritis was induced by MNNG (N-methyl-N-nitro-N-nitrosoguanidine) combined with ranitidine. The mice were free to access to an aqueous solution containing MNNG ([…]), and at the same time, the mice were given ranitidine (8 mg/ml) aqueous solution at a dose of 150 mg/kg by gavage at a fixed time per day for 20 consecutive weeks. After 20 weeks of modeling, on the basis of drinking ordinary distilled water, the mice were given Compound 1 (5 mg/kg) daily by gavage.

HMEC-1 cells = assay: Proliferation of HMEC-1 cells (CCK-8); format: cell-based, Human; settings: 0.05, 0.2 and 0.8 ug/mL; 48 h; 0% serum
Procedure: Human microvascular endothelial cells (HMEC-1 cells) were cultured in 10% serum culture medium at 37° C. and 5% CO2, the medium was replaced every 1-2 d, and the cell concentration was controlled to be 4×10^6 cells/mL for passage. Cells were collected, prepared to […] with complete culture medium, inoculated into a 96-well cell culture plate, with 100 μL per well, i.e., 5000 cells/well, and cultured at 37° C. and 5% CO2 until the cells adhered to the wall. The polypeptide compound of the present invention was prepared to test concentrations (0.05 ug/mL, 0.2 ug/mL, and 0.8 ug/mL) with 0% serum culture medium as experimental groups, a positive drug (300 ng/ml) was prepared in the same way and added as a positive control, and an equal amount of 0% serum drug-free culture medium was added to the control group. They were added to 5 duplicate wells, and the resultants were incubated at 37° C. and 5% CO2 for 48 h. Detection of the proliferation of cells using CCK-8: the old culture medium was removed, and a serum-free medium containing 10% CCK-8 was added to each well. After incubation in an incubator for 2 h, the absorbance at 450 nm was measured by a microplate reader.

AAVLDKLE [Compound 68]
Anti-ulcer activity (mean relative ulcer inhibition rate) [1]: 0.85

SMQASLEAEAKGKAE [Compound 1]
repair / therapeutic effect on chronic atrophic gastritis [2]: could promote the repair of chronic atrophic gastritis in mice; also recorded: therapeutic effect
height of the mucosa in the gastric antrum ([2]; compared with the model group): substantially recovered to the normal state
number of parietal cells ([2]; compared with the model group): increased significantly
structure of the gastric gland ([2]; compared with the model group): recovered to normal
Anti-ulcer activity (mean relative ulcer inhibition rate) [1]: 1.00
effect on proliferation of HMEC-1 cells (HMEC-1 cells): significant proliferation promoting effects; also recorded: proliferation-promoting effect

VDAAVLEKLE [Compound 67]
Anti-ulcer activity (mean relative ulcer inhibition rate) [1]: 0.24
